Results reported in the Kinase Knowledgebase extract (Sharma et al. 2016).

The molecules below were run against CDK2 (human) (UniProt P24941) (assay: Enzyme Assay).
`CN1CCN(Cc2ccc3cc(-c4csc(-c5ccncc5)n4)c(=O)[nH]c3c2)CC1` showed an IC50 of under 1000 nM.
`CC1CN(Cc2ccc3cc(-c4csc(CS(=O)(=O)c5ccccc5)n4)c(=O)[nH]c3c2)CC(C)O1` (stereo not given) showed an IC50 of under 1000 nM.
Work on `Nc1c(-c2csc(-c3ccncc3)n2)c(=O)[nH]c2ccc(N3CCCCC3)cc12` yielded an IC50 of under 1000 nM.
`CC1CC(C)CN(Cc2ccc3cc(-c4csc(CS(=O)(=O)c5ccccc5)n4)c(=O)[nH]c3c2)C1` (stereo not given) showed an IC50 of under 1000 nM.
Work on `O=C(c1ccc2cc(-c3csc(-c4ccncc4)n3)c(=O)[nH]c2c1)N1CCCCC1` yielded an IC50 of under 1000 nM.
`O=c1ccc(-c2nc(-c3cc4ccccc4[nH]c3=O)cs2)c[nH]1` gave an IC50 of under 1000 nM.
Work on `CN(c1nc(-c2cc3ccc(C(=O)O)cc3[nH]c2=O)cs1)S(=O)(=O)c1ccccc1` yielded an IC50 of under 1000 nM.
`COc1cc2[nH]c(=O)c(-c3csc(-c4ccncc4)n3)c(N)c2cc1OC` gave an IC50 of under 1000 nM.
Work on `O=c1[nH]c2ccccc2cc1-c1csc(-c2ccnc(NCCCO)c2)n1` yielded an IC50 of under 1000 nM.
Molecule `O=c1[nH]c2ccccc2cc1-c1nc(-c2ccncc2)cs1` has an IC50 of under 1000 nM.
`O=c1[nH]c2cc(CN3CCOCC3)ccc2cc1-c1csc(-c2ccncc2)n1` gave an IC50 of under 1000 nM.
`CCc1cc(-c2nc(-c3cc4cc(Cl)ccc4[nH]c3=O)cs2)ccn1` gave an IC50 of under 1000 nM.
`CN(c1nc(-c2cc3ccccc3[nH]c2=O)cs1)S(=O)(=O)c1ccccc1` showed an IC50 of under 1000 nM.
Work on `O=C(c1ccc2cc(-c3csc(CS(=O)(=O)c4ccccc4)n3)c(=O)[nH]c2c1)N1CCCCC1` yielded an IC50 of under 1000 nM.
For `CC1CCCN(Cc2ccc3cc(-c4csc(CS(=O)(=O)c5ccccc5)n4)c(=O)[nH]c3c2)C1` (stereo not given), the IC50 was under 1000 nM.
`CN1CCN(C(=O)c2ccc3cc(-c4csc(CS(=O)(=O)c5ccccc5)n4)c(=O)[nH]c3c2)CC1` gave an IC50 of under 1000 nM.
`O=c1[nH]c2cc(C(F)(F)F)ccc2cc1-c1csc(CS(=O)(=O)c2cccs2)n1` was tested, and the IC50 was under 1000 nM.
With `CCN(CC)C(=O)c1cccc2[nH]c(=O)c(-c3csc(-c4ccncc4)n3)cc12` the IC50 was under 1000 nM.
`CCN(CC)CCOc1cc(-c2nc(-c3cc4ccccc4[nH]c3=O)cs2)ccn1` was tested, and the IC50 was under 1000 nM.
With `CCN(CC)CCN(C)c1ncc2cc(-c3csc(-c4ccncc4)n3)c(=O)[nH]c2n1` the IC50 was under 1000 nM.
`O=c1[nH]c2ccccc2cc1-c1csc(-c2cccnc2)n1` was tested, and the IC50 was under 1000 nM.
`O=c1[nH]c2ccccc2cc1-c1csc(CS(=O)(=O)c2ccccn2)n1` gave an IC50 of under 1000 nM.
`O=c1[nH]c2ccccc2cc1-c1csc(-c2ccnc(OCCN3CCCCC3)c2)n1` showed an IC50 of under 1000 nM.
`O=c1[nH]c2cc(CN3CCCCC3)ccc2cc1-c1csc(CS(=O)(=O)c2ccccc2)n1` gave an IC50 of under 1000 nM.
Work on `COc1ccc(-c2nc(-c3cc4ccccc4[nH]c3=O)cs2)cn1` yielded an IC50 of under 1000 nM.
`O=c1[nH]c2cc(CN3CCCC3)ccc2cc1-c1csc(-c2ccncc2)n1` gave an IC50 of under 1000 nM.
`CN1CCN(c2ccc3[nH]c(=O)c(-c4csc(-c5ccncc5)n4)c(N)c3c2)CC1` showed an IC50 of under 1000 nM.
`O=c1[nH]c2ccccc2cc1-c1csc(-c2ccncc2)n1` gave an IC50 of under 1000 nM.
`CC1CN(Cc2ccc3cc(-c4csc(CS(=O)(=O)c5ccccc5)n4)c(=O)[nH]c3c2)CCN1` (stereo not given) gave an IC50 of under 1000 nM.
Molecule `CC1CCCN(Cc2ccc3cc(-c4csc(-c5ccncc5)n4)c(=O)[nH]c3c2)C1` (stereo not given) has an IC50 of under 1000 nM.
`CCN(CCN(C)C)Cc1ccc2cc(-c3csc(-c4ccncc4)n3)c(=O)[nH]c2c1` was tested, and the IC50 was under 1000 nM.
For `O=c1[nH]c2ccccc2cc1-c1csc(CS(=O)(=O)c2cccs2)n1`, the IC50 was under 1000 nM.
For `CC(C)[C@H]1CN(Cc2ccc3cc(-c4csc(CS(=O)(=O)c5ccccc5)n4)c(=O)[nH]c3c2)CCN1`, the IC50 was under 1000 nM.
Work on `O=c1[nH]c2cc(C(F)(F)F)ccc2cc1-c1csc(-c2ccncc2)n1` yielded an IC50 of under 1000 nM.
`O=c1[nH]c2ccccc2cc1-c1csc(-c2ccnc(N3CCCCC3)c2)n1` was tested, and the IC50 was under 1000 nM.
For `O=c1[nH]c2cc(O)ccc2cc1-c1csc(CS(=O)(=O)c2ccccc2)n1`, the IC50 was under 1000 nM.
`O=c1[nH]c2ccccc2cc1-c1csc(C[S+]([O-])c2ccccc2)n1` (stereo not given) showed an IC50 of under 1000 nM.
With `CN1CCN(C(=O)c2ccc3cc(-c4csc(N(C)S(=O)(=O)c5ccccc5)n4)c(=O)[nH]c3c2)CC1` the IC50 was under 1000 nM.
Work on `O=c1[nH]c2ccccc2cc1-c1nc(-c2cccc([N+](=O)[O-])c2)cs1` yielded an IC50 of under 1000 nM.
`COc1ccc2cc(-c3csc(C(C)(C)S(=O)(=O)c4ccccc4)n3)c(=O)[nH]c2c1` showed an IC50 of under 1000 nM.
`O=C(c1ccc2cc(-c3csc(CS(=O)(=O)c4ccccc4)n3)c(=O)[nH]c2c1)N1CCOCC1` was tested, and the IC50 was under 1000 nM.
`CCN(CC)CCN(C)Cc1ccc2cc(-c3csc(-c4ccncc4)n3)c(=O)[nH]c2c1` was tested, and the IC50 was under 1000 nM.
`O=c1[nH]c2cc(CN3CC=CCC3)ccc2cc1-c1csc(CS(=O)(=O)c2ccccc2)n1` gave an IC50 of under 1000 nM.
With `O=c1[nH]c2ccccc2cc1-c1csc(-c2ccc(-c3csnn3)cc2)n1` the IC50 was under 1000 nM.
With `O=c1[nH]c2cc(CO)ccc2cc1-c1csc(CS(=O)(=O)c2ccccc2)n1` the IC50 was under 1000 nM.
`O=c1[nH]c2ccc(F)cc2cc1-c1csc(-c2ccncc2)n1` was tested, and the IC50 was under 1000 nM.
`O=c1[nH]c2ccccc2cc1-c1csc(-c2cccc(Cl)c2Cl)n1` was tested, and the IC50 was under 1000 nM.
For `O=c1[nH]c2ccccc2c(O)c1-c1csc(-c2ccncc2)n1`, the IC50 was under 1000 nM.
In the case of `CSc1ncc2cc(-c3csc(-c4ccncc4)n3)c(=O)[nH]c2n1`, the IC50 is reported as under 1000 nM.
Work on `CN(c1nc(-c2cc3ccccc3[nH]c2=O)cs1)S(=O)(=O)c1ccc(Br)cc1` yielded an IC50 of under 1000 nM.
Molecule `CN1CCN(C(=O)c2ccc3cc(-c4csc(-c5ccncc5)n4)c(=O)[nH]c3c2)CC1` has an IC50 of under 1000 nM.
With `CCNCCNc1ncc2cc(-c3csc(-c4ccncc4)n3)c(=O)[nH]c2n1` the IC50 was under 1000 nM.
`O=c1[nH]c2ccccc2cc1-c1csc(-c2ccc(O)cc2)n1` gave an IC50 of under 1000 nM.
Work on `COc1ccc2cc(-c3csc(CS(=O)(=O)c4ccccc4)n3)c(=O)[nH]c2c1` yielded an IC50 of under 1000 nM.
`CN(C)CCOc1ccc2cc(-c3csc(-c4ccncc4)n3)c(=O)[nH]c2c1` gave an IC50 of under 1000 nM.
Work on `O=c1[nH]c2cc(CO)ccc2cc1-c1csc(-c2ccncc2)n1` yielded an IC50 of under 1000 nM.
In the case of `CC1CC(C)CN(Cc2ccc3cc(-c4csc(-c5ccncc5)n4)c(=O)[nH]c3c2)C1` (stereo not given), the IC50 is reported as under 1000 nM.
`O=c1[nH]c2cc(CN3CCCC(O)C3)ccc2cc1-c1csc(-c2ccncc2)n1` (stereo not given) was tested, and the IC50 was under 1000 nM.
`O=c1[nH]c2ccccc2cc1-c1csc(CS(=O)(=O)c2ccccc2)n1` was tested, and the IC50 was under 1000 nM.
In the case of `O=c1[nH]c2cc(CN3CCCCC3)ccc2cc1-c1csc(-c2ccncc2)n1`, the IC50 is reported as under 1000 nM.
`Cc1onc(-c2ccccc2)c1-c1csc(-c2cc3ccccc3[nH]c2=O)n1` gave an IC50 of under 1000 nM.
With `CCc1cc(-c2nc(-c3cc4ccccc4[nH]c3=O)cs2)ccn1` the IC50 was under 1000 nM.
`COc1ccc2cc(-c3csc(-c4ccnc(Cl)c4)n3)c(=O)[nH]c2c1` showed an IC50 of under 1000 nM.
`O=c1[nH]c2cc(C(F)(F)F)ccc2cc1-c1csc(CS(=O)(=O)c2ccccc2)n1` showed an IC50 of under 1000 nM.
With `O=c1[nH]c2cc(OCCN3CCOCC3)ccc2cc1-c1csc(-c2ccncc2)n1` the IC50 was under 1000 nM.
In the case of `CSc1nc2[nH]c(=O)c(-c3csc(-c4ccncc4)n3)cc2s1`, the IC50 is reported as under 1000 nM.
`Nc1nc(-c2ccncc2)ncc1-c1nc(-c2cc3ccccc3[nH]c2=O)cs1` gave an IC50 of under 1000 nM.
With `CCN(CC)C(=O)c1ccc2cc(-c3csc(N(C)S(=O)(=O)c4ccccc4)n3)c(=O)[nH]c2c1` the IC50 was under 1000 nM.
`CC(C)N(C)Cc1ccc2cc(-c3csc(-c4ccncc4)n3)c(=O)[nH]c2c1` was tested, and the IC50 was under 1000 nM.
In the case of `COC(=O)c1ccc2cc(-c3csc(N(C)S(=O)(=O)c4ccccc4)n3)c(=O)[nH]c2c1`, the IC50 is reported as under 1000 nM.
`CC(C)CNCc1ccc2cc(-c3csc(-c4ccncc4)n3)c(=O)[nH]c2c1` showed an IC50 of under 1000 nM.
For `C=CCN(c1nc(-c2cc3ccccc3[nH]c2=O)cs1)S(=O)(=O)c1ccccc1`, the IC50 was under 1000 nM.
With `C[C@@H]1CN(Cc2ccc3cc(-c4csc(CS(=O)(=O)c5ccccc5)n4)c(=O)[nH]c3c2)C[C@H](C)N1` the IC50 was under 1000 nM.
Molecule `CC(C)(c1nc(-c2cc3ccccc3[nH]c2=O)cs1)S(=O)(=O)c1ccccc1` has an IC50 of under 1000 nM.
Molecule `CCN(CC)Cc1ccc2cc(-c3csc(CS(=O)(=O)c4ccccc4)n3)c(=O)[nH]c2c1` has an IC50 of under 1000 nM.
In the case of `CCN(CCN(C)C)C(=O)c1ccc2cc(-c3csc(-c4ccncc4)n3)c(=O)[nH]c2c1`, the IC50 is reported as under 1000 nM.
In the case of `O=c1[nH]c2cc3c(cc2cc1-c1csc(-c2ccncc2)n1)OCO3`, the IC50 is reported as under 1000 nM.
Work on `Nc1ccc(-c2nc(-c3cc4ccccc4[nH]c3=O)cs2)cc1` yielded an IC50 of under 1000 nM.
Molecule `O=c1[nH]c2cc(CN3CCC(O)CC3)ccc2cc1-c1csc(-c2ccncc2)n1` has an IC50 of under 1000 nM.
`CC(C)NC[C@H]1CCCN1Cc1ccc2cc(-c3csc(CS(=O)(=O)c4ccccc4)n3)c(=O)[nH]c2c1` gave an IC50 of under 1000 nM.
`CN(c1nc(-c2cc3ccccc3[nH]c2=O)cs1)S(=O)(=O)c1cccc(F)c1` gave an IC50 of under 1000 nM.
For `O=c1[nH]c2cc(C(F)(F)F)ccc2cc1-c1csc(-c2ccc3c(c2)OCO3)n1`, the IC50 was under 1000 nM.
Work on `CC1CN(Cc2ccc3cc(-c4csc(-c5ccncc5)n4)c(=O)[nH]c3c2)CC(C)O1` (stereo not given) yielded an IC50 of under 1000 nM.
With `Nc1c(-c2csc(-c3ccncc3)n2)c(=O)[nH]c2ccc(Cl)cc12` the IC50 was under 1000 nM.
For `O=c1[nH]c2cc(CNC3CCCC3)ccc2cc1-c1csc(-c2ccncc2)n1`, the IC50 was under 1000 nM.
In the case of `CC(C)N(C)Cc1ccc2cc(-c3csc(CS(=O)(=O)c4ccccc4)n3)c(=O)[nH]c2c1`, the IC50 is reported as under 1000 nM.
`Nc1c(-c2csc(-c3ccncc3)n2)c(=O)[nH]c2ccccc12` was tested, and the IC50 was under 1000 nM.
`CN1CCN(Cc2ccc3cc(-c4csc(CS(=O)(=O)c5ccccc5)n4)c(=O)[nH]c3c2)CC1` gave an IC50 of under 1000 nM.
In the case of `COC(=O)c1cccc2[nH]c(=O)c(-c3csc(-c4ccncc4)n3)cc12`, the IC50 is reported as under 1000 nM.
`O=c1[nH]c2cc(CN3CCC3)ccc2cc1-c1csc(-c2ccncc2)n1` was tested, and the IC50 was under 1000 nM.
In the case of `CC(C)C(CO)NCc1ccc2cc(-c3csc(-c4ccncc4)n3)c(=O)[nH]c2c1` (stereo not given), the IC50 is reported as under 1000 nM.
`CCN(CC)Cc1ccc2cc(-c3csc(-c4ccncc4)n3)c(=O)[nH]c2c1` gave an IC50 of under 1000 nM.
Molecule `CC(C)NCc1ccc2cc(-c3csc(-c4ccncc4)n3)c(=O)[nH]c2c1` has an IC50 of under 1000 nM.
Molecule `CC1CN(Cc2ccc3cc(-c4csc(-c5ccncc5)n4)c(=O)[nH]c3c2)CCN1` (stereo not given) has an IC50 of under 1000 nM.
`O=c1[nH]c2cc(CN3CCC(O)C3)ccc2cc1-c1csc(-c2ccncc2)n1` (stereo not given) gave an IC50 of under 1000 nM.
